Test [1] relates to Candida albicans ATCC®10231™. Kind of test: MBC determination, broth microdilution with CFU enumeration. It counts as cell-based. The settings on record: C. albicans; enhancer 0.01%.
Test [2] relates to IL-6. Kind of test: Direct neutralization of secreted IL-6 in cell culture supernatants, ELISA. Type of test: biochemical. The settings on record: isoleucine 0.05%; 3 h. The protocol:
(§1) First, the effect on the secretion of these mediators by macrophages was evaluated. Secondly, the direct neutralization of already secreted mediators was evaluated. Both were measured by the state-of-the-art ELISA technique. Secondly, the direct neutralization of secreted pro-inflammatory mediator representatives IL-6, TNFa and MMP9 was measured in parallel. In brief, cell culture supernatants were collected after 48 h of macrophage differentiation and were centrifuged at 150 g for 5 min to remove cell debris. […] Treated supernatants were kept frozen until being processed for ELISA. IL-6, TNFa and MMP9 ELISA kits were purchased from BioTechne and the experiment was performed according to manufacturer's instructions. Briefly, 96-well plates were coated with capture antibodies overnight at room temperature. […] After several washing steps, the corresponding detection antibody, which is coupled to biotin, was incubated for 2 h. […] The reaction was stopped by the addition of sulphuric acid and absorbance at 450 nm was read with a plate reader. Absorbance is proportional to the concentration of analyte present in the medium, which was calculated based on a standard curve realized with recombinant IL-6, TNFa and MMP9.

Test [3] relates to MMP9. Kind of test: MMP9 secretion by THP-1-derived macrophages, ELISA. It counts as cell-based. The settings on record: 24 h. As to the method: First, the effect on the secretion of these mediators by macrophages was evaluated. Secondly, the direct neutralization of already secreted mediators was evaluated. Both were measured by the state-of-the-art ELISA technique. First, the secretion of the pro-inflammatory mediator representatives IL-6, TNFa and MMP9 in cell culture supernatants by THP-1 (a monocytic cell line) after its differentiation into macrophages were measured. In brief, THP-1 cells were seeded at a density of 3×10^5 cells/cm^2 in a 6-well plate in the presence of 160 nM of phorbol-12-myristate-13-acetate (PMA) to induce macrophage differentiation. Differentiation was further conducted for 48 h. […] Supernatants were collected and centrifuged at 150 g for 5 min to remove cell debris and were kept at −20° C. before being processed for ELISA. IL-6, TNFa and MMP9 ELISA kits were purchased from BioTechne and the experiment was performed according to manufacturer's instructions. Briefly, 96-well plates were coated with capture antibodies overnight at room temperature. […] The reaction was stopped by the addition of sulphuric acid and absorbance at 450 nm was read with a plate reader. Absorbance is proportional to the concentration of analyte present in the medium, which was calculated based on a standard curve realized with recombinant IL-6, TNFa and MMP9.

Test [4] relates to IL-6. As to the kind of experiment: IL-6 secretion by THP-1-derived macrophages, ELISA. It counts as cell-based. The settings on record: 24 h. The protocol: First, the effect on the secretion of these mediators by macrophages was evaluated. Secondly, the direct neutralization of already secreted mediators was evaluated. Both were measured by the state-of-the-art ELISA technique. First, the secretion of the pro-inflammatory mediator representatives IL-6, TNFa and MMP9 in cell culture supernatants by THP-1 (a monocytic cell line) after its differentiation into macrophages were measured. In brief, THP-1 cells were seeded at a density of 3×10^5 cells/cm^2 in a 6-well plate in the presence of 160 nM of phorbol-12-myristate-13-acetate (PMA) to induce macrophage differentiation. Differentiation was further conducted for 48 h. […] Supernatants were collected and centrifuged at 150 g for 5 min to remove cell debris and were kept at −20° C. before being processed for ELISA. IL-6, TNFa and MMP9 ELISA kits were purchased from BioTechne and the experiment was performed according to manufacturer's instructions. Briefly, 96-well plates were coated with capture antibodies overnight at room temperature. […] After several washing steps, the corresponding detection antibody, which is coupled to biotin, was incubated for 2 h. […] The reaction was stopped by the addition of sulphuric acid and absorbance at 450 nm was read with a plate reader. Absorbance is proportional to the concentration of analyte present in the medium, which was calculated based on a standard curve realized with recombinant IL-6, TNFa and MMP9.

Test [5] concerns Staphylococcus aureus ATCC® 6538™. Kind of test: Absolute microbial counts in function of enzyme solution concentration. Type of test: cell-based. To be noted: 0.005%-0.0000391% (v/v) GOX+LPO. The text has this: (§2) Absolute microbial counts in function of concentration of the antimicrobial agent tested are useful to monitor the bactericidal and fungicidal efficacy of that agent.
(§3) To determine the absolute number of live microorganisms in function of different enzyme solution concentrations tested, a classical broth microdilution assay combined with standard CFU enumeration techniques was used to determine the susceptibility of a series of microbes commonly detected in infected wounds, including (a) the Gram-positive bacterium Staphylococcus aureus ATCC® 6538™ (results shown below), (b) the Gram-negative bacterium Pseudomonas aeruginosa ATCC®9027™ (results shown below), (c) the yeast Candida albicans ATCC®10231™ (results shown below), and (d) the fungus Aspergillus niger ATCC®16404™ (results shown below). In brief, the broth microdilution assay was set up as previously described (see 2.1). After incubation, the absolute microbial count at the MIC and following higher concentrations (MICx2, MICx4, and so on) was determined using standard CFU enumeration techniques. For each combination evaluated, this test was repeated at least 5 times. The collected data were further analyzed in MS Excel and expressed as log CFU/ml. Mean results were plotted in function of enzyme solution concentration.

For test [6], the system named is Candida albicans ATCC®10231™. The description is as above. To be noted: enhancer 0.01%; 0.005%-0.0000391% (v/v) GOX+LPO. Type of test: cell-based.
From the text: as §2, §3

Test [7] deals with MMP9. Kind of test: Direct neutralization of secreted MMP9 in cell culture supernatants, ELISA. It counts as biochemical. The settings on record: isoleucine 0.05%; 3 h. The protocol: as §1

The text below walks through data of patent US20260273028A1, “PEROXIDASE COMPOSITIONS CONTAINING IMPROVED ENHANCING AGENTS” (FLEN HEALTH PHARMA NV, priority 2022, published 2026).

Take `CC[C@H](C)[C@H](N)C(=O)O` [Isoleucine, isoleucine]: the “MBC: GOX+LPO enzyme solution needed” value in test [1] was 0.0000391 % (v/v). In test [1], the “increase in MBC compared to reference” value came out at 4 ×. Further, the “increase in MBC compared to the enhancing molecule guaiacol” value in test [1] is reported as 2 ×. In the test with IL-6 [2], the “additional decrease of already secreted IL-6 (direct neutralization) vs GOX+LPO (1:1) alone” value amounted to 29.4%. The “additional decrease in MMP9 secretion by macrophages vs GOX+LPO (1:1) alone” value is reported as 12.7% in the test on MMP9 [3] (isoleucine 0.0025%) and 21.5% in the test with MMP9 [3] (isoleucine 0.05%). Moreover, the “additional decrease in IL-6 secretion by macrophages vs GOX+LPO (1:1) alone” value in the test on IL-6 [4] (isoleucine 0.0025%) is listed as 7.6%; in the test with IL-6 [4] (isoleucine 0.05%) it was 20.6%; in the test on IL-6 [4] (isoleucine 0.5%), 33.6%. For the same molecule, the “reduction in absolute S. aureus counts compared to reference and guaiacol solution” value (“reduction in absolute S. aureus counts” for short) in test [5] (enhancer 0.00125%) and in test [5] (enhancer 0.005%) was “stronger reduction” throughout. Further, the “reduction in absolute C. albicans counts compared to reference and guaiacol solution” value in test [6] was “stronger reduction”. In the test with MMP9 [7], the “additional decrease of already secreted MMP9 (direct neutralization) vs GOX+LPO (1:1) alone” value was 27.1%.

Consider `N[C@@H](CO)C(=O)O` [Serine, serine], for which, in test [1], the “MBC: GOX+LPO enzyme solution needed” value is on record as 0.0000391 % (v/v), the “increase in MBC compared to reference” value was 4 × and the “increase in MBC compared to the enhancing molecule guaiacol” value is on record as 2 ×. In test [5] (enhancer 0.0025-0.00125%), the “reduction in absolute S. aureus counts” value is listed as “stronger reduction”. The “reduction in absolute S. aureus counts” value in test [5] (enhancer 10-0.005%) is “stronger reduction”. Further, in test [6], the “reduction in absolute C. albicans counts compared to reference and guaiacol solution” value is “stronger reduction”.

Consider `NC(=O)CC[C@H](N)C(=O)O` [Glutamine, glutamine], for which the “reduction in absolute S. aureus counts” value in test [5] (enhancer 0.1%) is on record as “stronger reduction”.
